Reference: PubChem BioAssay AID1259407 (Chemical Carcinogenesis Research Information System (CCRIS), 2018)
“Also recorded” adds a separate entry of the source. The source made the active and inactive calls. The rule behind the calls is not given here.

System: CCRIS mutagenicity, Ames/micronucleus/aberration tests
Experiment: CCRIS mutagenicity studies
[1] = Test System: AMES SALMONELLA TYPHIMURIUM, Strain/Indicator: TA98, Metabolic Activation: NONE, Method: STANDARD PLATE
[2] = Test System: AMES SALMONELLA TYPHIMURIUM, Strain/Indicator: TA98, Metabolic Activation: RAT, LIVER, S-9, AROCLOR 1254, Method: STANDARD PLATE
[3] = Test System: AMES SALMONELLA TYPHIMURIUM, Strain/Indicator: TA100, Metabolic Activation: NONE, Method: STANDARD PLATE
[4] = Test System: AMES SALMONELLA TYPHIMURIUM, Strain/Indicator: TA100, Metabolic Activation: RAT, LIVER, S-9, AROCLOR 1254, Method: STANDARD PLATE

Structure (SMILES): NC(=O)CCC(=O)Nc1ccc(Cl)c(Cl)c1Cl
- mutagenic call [1]: inactive; negative
- mutagenic call [2]: inactive; negative
- mutagenic call [3]: inactive; negative
- mutagenic call [4]: inactive; negative

Structure (SMILES): Nc1ccc([N+](=O)[O-])cc1N
- mutagenic call (End Point: IN VITRO CHROMOSOMAL ABERRATIONS, Test System: CHL CELLS, Metabolic Activation: RAT, LIVER, S-9, SODIUM PHENOBARBITAL AND 5,6-BENZOFLAVONE): inactive; negative; authors report equivocal results for structural changes at 0.75 , 1.5
- mutagenic call (Test System: AMES SALMONELLA TYPHIMURIUM, Strain/Indicator: TA98(NR), Metabolic Activation: NONE, Method: PREINCUBATION): active; positive
- mutagenic call (Test System: AMES SALMONELLA TYPHIMURIUM, Strain/Indicator: TA98(NR), Metabolic Activation: RAT, LIVER, S-9, AROCLOR 1254, Method: PREINCUBATION): active; positive
- mutagenic call (Test System: AMES SALMONELLA TYPHIMURIUM, Strain/Indicator: TA98, Metabolic Activation: NONE): active; positive
- mutagenic call (Test System: AMES SALMONELLA TYPHIMURIUM, Strain/Indicator: TA98, Metabolic Activation: NONE, Method: PREINCUBATION): active; positive
- mutagenic call [1]: active; positive
- mutagenic call (Test System: AMES SALMONELLA TYPHIMURIUM, Strain/Indicator: TA98, Metabolic Activation: PEA APICAL BUD S-9, Method: PREINCUBATION): active; positive
- mutagenic call (Test System: AMES SALMONELLA TYPHIMURIUM, Strain/Indicator: TA98, Metabolic Activation: PEA APICAL BUD S-9, Method: STANDARD PLATE): active; positive
- mutagenic call (Test System: AMES SALMONELLA TYPHIMURIUM, Strain/Indicator: TA98, Metabolic Activation: RAT, LIVER, S-9, AROCLOR 1254): active; positive
- mutagenic call (Test System: AMES SALMONELLA TYPHIMURIUM, Strain/Indicator: TA98, Metabolic Activation: RAT, LIVER, S-9, AROCLOR 1254, Method: PREINCUBATION): active; positive
- mutagenic call [2]: active; positive
- mutagenic call (Test System: AMES SALMONELLA TYPHIMURIUM, Strain/Indicator: TA98, Metabolic Activation: RAT, LIVER, S-9, PHENOBARBITAL AND BETA-NAPHTHOFLAVONE, Method: PREINCUBATION): active; positive
- mutagenic call (Test System: AMES SALMONELLA TYPHIMURIUM, Strain/Indicator: TA98, Metabolic Activation: RAT, LIVER, S-9, SODIUM PHENOBARBITAL AND 5,6-BENZOFLAVONE, Method: PREINCUBATION): active; positive
- mutagenic call (Test System: AMES SALMONELLA TYPHIMURIUM, Strain/Indicator: TA98, Metabolic Activation: ZEA MAYS, S-2, Method: STANDARD PLATE): active; positive
- mutagenic call (Test System: AMES SALMONELLA TYPHIMURIUM, Strain/Indicator: TA100(NR), Metabolic Activation: NONE, Method: PREINCUBATION): active; positive
- mutagenic call (Test System: AMES SALMONELLA TYPHIMURIUM, Strain/Indicator: TA100(NR), Metabolic Activation: RAT, LIVER, S-9, AROCLOR 1254, Method: PREINCUBATION): active; positive
- mutagenic call (Test System: AMES SALMONELLA TYPHIMURIUM, Strain/Indicator: TA100, Metabolic Activation: NONE, Method: PREINCUBATION): active; positive
- mutagenic call [3]: active; positive
- mutagenic call (Test System: AMES SALMONELLA TYPHIMURIUM, Strain/Indicator: TA100, Metabolic Activation: PEA APICAL BUD S-9, Method: PREINCUBATION): active; positive
- mutagenic call (Test System: AMES SALMONELLA TYPHIMURIUM, Strain/Indicator: TA100, Metabolic Activation: PEA APICAL BUD S-9, Method: STANDARD PLATE): active; positive
- mutagenic call (Test System: AMES SALMONELLA TYPHIMURIUM, Strain/Indicator: TA100, Metabolic Activation: RAT, LIVER, S-9, AROCLOR 1254, Method: PREINCUBATION): active; positive
- mutagenic call [4]: active; positive
- mutagenic call (Test System: AMES SALMONELLA TYPHIMURIUM, Strain/Indicator: TA100, Metabolic Activation: RAT, LIVER, S-9, PHENOBARBITAL AND BETA-NAPHTHOFLAVONE, Method: PREINCUBATION): active; positive
- mutagenic call (Test System: AMES SALMONELLA TYPHIMURIUM, Strain/Indicator: TA100, Metabolic Activation: ZEA MAYS, S-2, Method: STANDARD PLATE): active; positive
- mutagenic call (Test System: AMES SALMONELLA TYPHIMURIUM, Strain/Indicator: TA104, Metabolic Activation: NONE, Method: STANDARD PLATE): active; positive
- mutagenic call (Test System: AMES SALMONELLA TYPHIMURIUM, Strain/Indicator: TA4001, Metabolic Activation: NONE, Method: STANDARD PLATE): inactive; negative
- mutagenic call (Test System: AMES SALMONELLA TYPHIMURIUM, Strain/Indicator: TA4006, Metabolic Activation: NONE, Method: STANDARD PLATE): active; positive
- mutagenic call (Test System: AMES SALMONELLA TYPHIMURIUM, Strain/Indicator: TA7001, Metabolic Activation: NONE, Method: STANDARD PLATE): inactive; negative
- mutagenic call (Test System: AMES SALMONELLA TYPHIMURIUM, Strain/Indicator: TA7001, Metabolic Activation: RAT LIVER S-9, AROCLOR 1254, Method: STANDARD PLATE): inactive; negative
- mutagenic call (Test System: AMES SALMONELLA TYPHIMURIUM, Strain/Indicator: TA7002, Metabolic Activation: NONE, Method: STANDARD PLATE): active; positive
- mutagenic call (Test System: AMES SALMONELLA TYPHIMURIUM, Strain/Indicator: TA7002, Metabolic Activation: RAT LIVER S-9, AROCLOR 1254, Method: STANDARD PLATE): active; positive
- mutagenic call (Test System: AMES SALMONELLA TYPHIMURIUM, Strain/Indicator: TA7003, Metabolic Activation: NONE, Method: STANDARD PLATE): inactive; negative
- mutagenic call (Test System: AMES SALMONELLA TYPHIMURIUM, Strain/Indicator: TA7004, Metabolic Activation: NONE, Method: STANDARD PLATE): active; positive
- mutagenic call (Test System: AMES SALMONELLA TYPHIMURIUM, Strain/Indicator: TA7004, Metabolic Activation: RAT LIVER S-9, AROCLOR 1254, Method: STANDARD PLATE): active; positive
- mutagenic call (Test System: AMES SALMONELLA TYPHIMURIUM, Strain/Indicator: TA7005, Metabolic Activation: NONE, Method: STANDARD PLATE): active; positive
- mutagenic call (Test System: AMES SALMONELLA TYPHIMURIUM, Strain/Indicator: TA7005, Metabolic Activation: RAT LIVER S-9, AROCLOR 1254, Method: STANDARD PLATE): active; positive
- mutagenic call (Test System: Ames Salmonella typhimurium, Strain/Indicator: TA97a, Metabolic Activation: None, Method: Preincubation): active; positive (decrease in mutagenicity when 0.99-15.90 mg/plate of chloroform extrac
- mutagenic call (Test System: Ames Salmonella typhimurium, Strain/Indicator: TA98, Metabolic Activation: None, Method: Preincubation): active; positive (decrease in mutagenicity when 0.99-15.90 mg/plate of chloroform extrac; also recorded: active; positive (dose related decrease in mutagenicity when 1.82-21.90 mg/plate of meth
- mutagenic call (Test System: CHINESE HAMSTER OVARY, Strain/Indicator: CHO-K1-BH4 (HGPRT)/6-THIOGUANINE, Metabolic Activation: NONE): inactive; negative
- mutagenic call (Test System: CHINESE HAMSTER OVARY, Strain/Indicator: CHO-K1-BH4 (HGPRT)/6-THIOGUANINE, Metabolic Activation: S-9): inactive; negative
- mutagenic call (Test System: E. COLI, Strain/Indicator: WP2 UVRA, Metabolic Activation: HAMSTER, LIVER, S-9, AROCLOR 1254, Method: STANDARD PLATE): inactive; negative
- mutagenic call (Test System: E. COLI, Strain/Indicator: WP2 UVRA, Metabolic Activation: HAMSTER, LIVER, S-9, Method: STANDARD PLATE): inactive; negative
- mutagenic call (Test System: E. COLI, Strain/Indicator: WP2 UVRA, Metabolic Activation: MOUSE, LIVER, S-9, AROCLOR 1254, Method: STANDARD PLATE): inactive; negative
- mutagenic call (Test System: E. COLI, Strain/Indicator: WP2 UVRA, Metabolic Activation: MOUSE, LIVER, S-9, Method: STANDARD PLATE): inactive; negative
- mutagenic call (Test System: E. COLI, Strain/Indicator: WP2 UVRA, Metabolic Activation: NONE, Method: STANDARD PLATE): inactive; negative
- mutagenic call (Test System: E. COLI, Strain/Indicator: WP2 UVRA, Metabolic Activation: RAT, LIVER, S-9, AROCLOR 1254, Method: STANDARD PLATE): inactive; negative
- mutagenic call (Test System: E. COLI, Strain/Indicator: WP2 UVRA, Metabolic Activation: RAT, LIVER, S-9, Method: STANDARD PLATE): inactive; negative
- mutagenic call (Test System: MOUSE LYMPHOMA, Strain/Indicator: L5178Y (TK+/TK-), Metabolic Activation: NONE, Method: SUSPENSION/PLATE): active; positive
- mutagenic call (Test System: MOUSE LYMPHOMA, Strain/Indicator: L5178Y (TK+/TK-), Metabolic Activation: RAT, LIVER, S-9, AROCLOR 1254, Method: SUSPENSION/PLATE): active; positive
- mutagenic call (Test System: UDS RAT HEPATOCYTES, Strain/Indicator: THY INCORP, Metabolic Activation: NONE, Method: AUTORADIOGRAPHY (SERUM-FREE MEDIA)): active; positive
